Key:
Assay type in all cases: in vivo
Zea mays (ZEAMX) [1] = assay: F. Post-emergence effect on useful plants, ZEAMX; settings: useful plant
Summary of the method: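 Crop plants grown in sandy loam in the greenhouse were sprayed at the one-leaf stage, 2-3 weeks after sowing, with WP or EC formulations plus 0.5% additive at 600 l/ha water. Damage was scored visually after about 3 weeks against untreated controls (0% = like control, 100% = dead).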

[2] = tested on: Alopecurus myosuroides (ALOMY); assay: B. Herbicidal post-emergence efficacy, ALOMY; settings: 1280 g/ha, rated visually after about 3 weeks
Protocol: Seeds of mono- and dicotyledonous weed plants were placed in plastic pots in sandy loam soil (doubly sown with in each case one species of mono- or dicotyledonous weed plants per pot), covered with soil and cultivated in a greenhouse under controlled growth conditions. 2 to 3 weeks after sowing, the test plants were treated at the one-leaf stage. The compounds of the invention, formulated in the form of wettable powders (WP) or as emulsion concentrates (EC), were applied onto the green parts of the plants as aqueous suspension or emulsion with addition of 0.5% additive at a water application rate of 600 liters per hectare (converted). After the test plants had been kept in the greenhouse under optimum growth conditions for about 3 weeks, the activity of the preparations was rated visually in comparison to untreated controls.
For example, • 100% efficacy=plants have died, • 0% efficacy=like untreated control plants
Tables B1a to B12c below show the effects of selected inventive compounds of the general formula (I) according to table 1 on various harmful plants at an application rate corresponding to 1280 g/ha or less, which were obtained by the experimental procedure mentioned above.

[3] = tested on: Digitaria sanguinalis (DIGSA); assay: C. Herbicidal pre-emergence efficacy, DIGSA; settings: scored after about 3 weeks
Summary of the method: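 Pre-emergence test: formulated compounds sprayed as aqueous suspension or emulsion with 0.5% additive at 600 l/ha onto soil covering sown seeds, at rates corresponding to 320 g/ha or less. After about 3 weeks in greenhouse, efficacy scored visually as percent versus untreated controls (100% = plants dead).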

[4] = tested on: Alopecurus myosuroides (ALOMY); assay: E. Herbicidal post-emergence efficacy, ALOMY; settings: application rate 320 g/ha
Protocol: (§1) Seeds of monocotyledonous and dicotyledonous weeds and crop plants were placed in sandy loam in plastic or organic planting pots, covered with soil and cultivated in a greenhouse under controlled growth conditions. 2 to 3 weeks after sowing, the test plants were treated at the one-leaf stage. The compounds of the invention, formulated in the form of wettable powders (WP) or as emulsion concentrates (EC), were then sprayed onto the green parts of the plants as aqueous suspension or emulsion with addition of 0.5% additive at a water application rate of 600 l/ha (converted). After the test plants had been kept in the greenhouse under optimum growth conditions for about 3 weeks, the activity of the preparations was rated visually in comparison to untreated controls.
(§2) For example, • 100% efficacy=plants have died, • 0% action=like untreated control plants.
(§3) Tables E1a to E12b below show the effects of selected compounds of the general formula (I) according to table 1 on various harmful plants at an application rate corresponding to 320 g/ha or less, which were obtained by the experimental procedure mentioned above.

[5] = tested on: Digitaria sanguinalis (DIGSA); assay: E. Herbicidal post-emergence efficacy, DIGSA
Protocol: as §1, §2, §3

[6] = tested on: Pharbitis purpurea (PHBPU); assay: C. Herbicidal pre-emergence efficacy, PHBPU; settings: scored after about 3 weeks
Excerpt: (§4) Seeds of monocotyledonous and dicotyledonous weed plants and crop plants were placed in plastic or organic planting pots and covered with soil. The compounds of the invention, formulated in the form of wettable powders (WP) or as emulsion concentrates (EC), were then applied to the surface of the covering soil as aqueous suspension or emulsion with addition of 0.5% additive at a water application rate equivalent to 600 l/ha (converted). After the treatment, the pots were placed in a greenhouse and kept under good growth conditions for the test plants. After about 3 weeks, the efficacy of the preparations was scored visually in comparison with untreated controls as percentages. For example, • 100% efficacy=plants have died, • 0% efficacy=like untreated control plants.
(§5) Tables C1a to C14b below show the effects of selected compounds of the general formula (I) according to table 1 on various harmful plants at an application rate corresponding to 320 g/ha or less, which were obtained by the experimental procedure mentioned above.

[7] = tested on: Abutilon theophrasti (ABUTH); assay: B. Herbicidal post-emergence efficacy, ABUTH; settings: rated visually after about 3 weeks
Summary of the method: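 Post-emergence greenhouse test: one-leaf-stage plants, compound (WP/EC, +0.5% additive, 600 L/ha water, ≤1280 g/ha) applied to green parts; % efficacy scored visually vs untreated after ~3 wk; 100% = plants died.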

Zea mays (ZEAMX) [8] = assay: D. Pre-emergence effect on useful plants, ZEAMX; settings: useful plant
Summary of the method: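 Seeds sown in pots and covered with soil; WP or EC formulations sprayed on the soil surface as aqueous suspension/emulsion with 0.5% additive at 600 l/ha water. Plants grown in greenhouse; crop damage scored visually after about 3 weeks as % versus untreated controls (100% = dead, 0% = like control).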

[9] = tested on: Matricaria inodora (MATIN); assay: C. Herbicidal pre-emergence efficacy, MATIN; settings: scored after about 3 weeks
Excerpt: as §4, §5

Avena fatua (AVEFA) = assay: C. Herbicidal pre-emergence efficacy, AVEFA; settings: 320 g/ha, scored after about 3 weeks
Excerpt: as §4, §5

| Post-emergence efficacy against ZEAMX in % (Zea mays (ZEAMX) [1]; application rate 80 g/ha) [%] | Pre-emergence efficacy against ZEAMX in % (Zea mays (ZEAMX) [8]; application rate 80 g/ha) [%] | Pre-emergence efficacy against ZEAMX in % (Zea mays (ZEAMX) [8]; application rate 320 g/ha) [%] | SMILES | Post-emergence efficacy against ZEAMX in % (Zea mays (ZEAMX) [1]; application rate 320 g/ha) [%] | Post-emergence efficacy against ALOMY in % [2] [%] | Pre-emergence efficacy against DIGSA ([3]; 80 g/ha) [%] | Pre-emergence efficacy against DIGSA ([3]; 320 g/ha) [%] | Post-emergence efficacy against ALOMY in % [4] [%] | Post-emergence efficacy against DIGSA in % ([5]; application rate 80 g/ha) [%] | Post-emergence efficacy against DIGSA in % ([5]; application rate 320 g/ha) [%] | Pre-emergence efficacy against PHBPU ([6]; 80 g/ha) [%] | Pre-emergence efficacy against PHBPU ([6]; 320 g/ha) [%] | Post-emergence efficacy against ABUTH in % ([7]; 320 g/ha) [%] | Post-emergence efficacy against ABUTH in % ([7]; 1280 g/ha) [%] | Pre-emergence efficacy against MATIN ([9]; 80 g/ha) [%] | Pre-emergence efficacy against MATIN ([9]; 320 g/ha) [%] | Post-emergence efficacy against ABUTH in % ([7]; 80 g/ha) [%] | Pre-emergence efficacy against AVEFA (Avena fatua (AVEFA)) [%] |
| --- | --- | --- | --- | --- | --- | --- | --- | --- | --- | --- | --- | --- | --- | --- | --- | --- | --- | --- |
|  | 0 | 20 | Cc1cccc(Oc2ncc(F)cn2)c1OS(=O)(=O)CCC(F)(F)F [Example I-45] |  | 90 | 100 | 100 |  |  |  |  |  | 100 | 100 |  |  |  |  |
|  | 10 |  | O=S(=O)(CCC1CC1)Oc1c(F)cccc1Oc1ncc(Cl)cn1 [Example I-55] |  | 90 | 100 | 100 |  |  | 90 |  |  | 90 | 90 |  |  | 90 |  |
| 20 |  |  | O=S(=O)(CCCC(F)F)Oc1c(F)cccc1Oc1ncc(Cl)cn1 [Example I-56] |  |  | 100 | 100 | 80 |  | 100 | 100 | 100 | 90 | 90 |  |  | 90 | 80 |
| 20 |  |  | O=S(=O)(CCC(F)=C(F)F)Oc1c(Cl)cccc1Oc1ncc(Cl)cn1 [Example I-73] |  | 90 |  | 100 |  |  |  |  |  | 100 | 100 |  |  | 90 |  |
| 0 | 0 |  | Cc1cccc(Oc2ncc(Cl)cn2)c1OS(=O)(=O)CC1CC(F)(F)C1 [Example I-74] |  | 90 | 100 | 100 |  |  |  |  |  | 100 | 100 |  |  | 100 |  |

The remaining lines, values behind:

| SMILES | Post-emergence efficacy against ZEAMX in % (Zea mays (ZEAMX) [1]; application rate 80 g/ha) [%] | Pre-emergence efficacy against ZEAMX in % (Zea mays (ZEAMX) [8]; application rate 80 g/ha) [%] | Pre-emergence efficacy against ZEAMX in % (Zea mays (ZEAMX) [8]; application rate 320 g/ha) [%] | Post-emergence efficacy against ZEAMX in % (Zea mays (ZEAMX) [1]; application rate 320 g/ha) [%] | Post-emergence efficacy against ALOMY in % [2] [%] | Pre-emergence efficacy against DIGSA ([3]; 80 g/ha) [%] | Pre-emergence efficacy against DIGSA ([3]; 320 g/ha) [%] | Post-emergence efficacy against ALOMY in % [4] [%] | Post-emergence efficacy against DIGSA in % ([5]; application rate 80 g/ha) [%] | Post-emergence efficacy against DIGSA in % ([5]; application rate 320 g/ha) [%] | Pre-emergence efficacy against PHBPU ([6]; 80 g/ha) [%] | Pre-emergence efficacy against PHBPU ([6]; 320 g/ha) [%] | Post-emergence efficacy against ABUTH in % ([7]; 320 g/ha) [%] | Post-emergence efficacy against ABUTH in % ([7]; 1280 g/ha) [%] | Pre-emergence efficacy against MATIN ([9]; 80 g/ha) [%] | Pre-emergence efficacy against MATIN ([9]; 320 g/ha) [%] | Post-emergence efficacy against ABUTH in % ([7]; 80 g/ha) [%] | Pre-emergence efficacy against AVEFA (Avena fatua (AVEFA)) [%] |
| --- | --- | --- | --- | --- | --- | --- | --- | --- | --- | --- | --- | --- | --- | --- | --- | --- | --- | --- |
| O=S(=O)(CCCC(F)(F)F)Oc1c(F)cccc1Oc1ncc(Br)cn1 [Example I-41] | 0 |  |  | 20 | 90 | 100 | 100 | 100 | 100 | 100 | 80 | 100 |  |  |  |  |  |  |
| Cc1cccc(Oc2ncc(F)cn2)c1OS(=O)(=O)CCCC(F)(F)F [Example I-46] |  | 0 |  |  | 90 | 100 | 100 |  |  |  |  |  | 100 | 100 |  |  |  |  |
| O=S(=O)(CCCC(F)(F)F)Oc1c(F)cccc1Oc1ncc(Cl)cn1 [Example I-49] |  |  |  |  | 90 | 100 | 100 | 80 | 90 | 100 | 90 | 100 | 90 | 90 | 80 | 100 | 90 |  |
| N#Cc1cccc(Oc2ncc(Cl)cn2)c1OS(=O)(=O)CCCC(F)(F)F [Example I-81] |  | 0 |  |  |  | 100 | 100 | 90 | 80 | 90 |  | 100 |  |  |  |  |  |  |
